Columns and labels:
[1] = biological target: T1, protein farnesyl transferase (Bos taurus, UniProt P29702+P49355); assay: Evaluation of the inhibition of protein farnesyl transferase (dansyl-GCVLS fluorescence); assay type: biochemical, bovine; conditions: read-out: IC50 PFTase
T1 construct: partially purified from bovine brain by ion-exchange chromatography; from tissue; host or cells: bovine brain
Description: A) Evaluation of the inhibition of protein farnesyl transferase
The farnesylation of the dansylated peptide GCVLS, catalyzed with the enzyme protein farnesyl transferase, results in a change in the emission spectrum of the dansyl group, and especially an increase in the emission at 505 nm when the molecule is excited at 340 nm. When measured using the spectrofluorimeter, this emission is proportional to the activity of the enzyme (Pompliano et al., J. Am. Chem. Soc. 1992; 114: 7945-7946).
55 mM TRIS/HCl pH 7.5; 5.5 mM DTT; 5.5 mM MgCl2; 110 μM ZnCl2, 0.22% B-octyl-B D-glucopyrannoside.
Farnesyl pyrophosphate (FPP), (Sigma)
Dansylated peptide dansyl-GCVLS (Neosystem/Strasbourg, France)
The protein farnesyl transferase is partially purified from bovine brain by ion-exchange chromatography on Q-sepharose (Pharmacia) (Moores et al., J. Biol. Chem. 1991, 266: 14603-14610, Reiss et al., Cell 1990, 62: 81-88).
The reaction mixture containing 2 μM of FPP, 2 μM of dansyl GCVLS with or without (zero) the amount of enzyme giving an intensity of 100 on the spectrofluorimeter after incubation for 10 minutes at 37° C., is prepared on ice.
In an Eppendorf tube, 360 μl of reaction mixture are mixed with 40 μl of 10× concentrated test product or of solvent, and incubated for 10 minutes at 37° C. The reaction is quenched on ice and the fluorescence intensity is measured (excitation at 340 nm, 4 nm slit, emission at 505 nm, 10 nm slit). The tests are performed in duplicate. The results are expressed as a percentage of inhibition. Under these conditions, the derivatives of the present invention were identified as powerful inhibitors of protein farnesyl transferase (IC50<10 μM).
Adaptation of the method to a 96-wellformat:
The procedure is similar to that above, except that the measurements are performed in a “Black Fluorotrack 200” 96-well device (Greiner, Poitiers, France) and the readings are performed using a “Spectrametrix Gemini” 96-well fluorimeter (Molecular Devices, Sunnyvale, Calif., USA)

[2] = biological target: T2, GGPT I (Bos taurus, UniProt P29702+Q5EAD5); assay: Evaluation of the inhibition of geranyl geranyl transferase protein I (3H-GGPP incorporation into RhoA-GST); assay type: biochemical, bovine; conditions: read-out: IC50 PGGTase
T2 construct: GGPT I is partially purified from bovine brain by ion-exchange chromatography; from tissue; host or cells: bovine brain
Description: B) Evaluation of the inhibition of geranyl geraryl transferase protein I:
55 mM TRIS/HCl pH 7.5; 5.5 mM DTT; 5.5 mM MgCl2; 110 μM ZnCl2, 0.22% N-octyl-B D-glucopyrannoside.
^3H-geranylgeranyl pyrophosphate (GGPP), 66 μM, 15 CI/mmol, (Isotopchim)
Rho-GST recombinant protein
GGPT I is partially purified from bovine brain by ion-exchange chromatography on Q-sepharose (Pharmacia); elution at 0.23 and 0.4 M NaCl, respectively.
The reaction mixture containing 0.2 μM of ^3H-GGPP, 1 μM of RhoA-GST with or without (zero) 5 μl of GGPT/test, is prepared on ice.
In an Eppendorf tube, 45 μl of reaction mixture are mixed with 5 μl of 10× concentrated test product or of solvent, and incubated for 45 minutes at 37° C. A 45 μl aliquot is placed on a phosphocellulose P81 filter (Whatman, Maidstone, UK) numbered, washed with 50% ethanol, phosphoric acid (0.5%) and counted by scintillation.
The tests are performed in duplicate. The results are expressed as a percentage of inhibition.
Adaptation of the method to a 96-wellformat
The procedure is similar to that above, except that the measurements are performed in 96-well plates (Nunc, France) and the reactions are then passed through a 96-well “Unifilter” (Whatman, Maidstone, UK) containing a phosphocellulose P81 buffer using a “Filtermate 196” system (Packard, France).
After washing with 50% ethanol and phosphoric acid (0.5%), the filters are counted by scintillation on a “Packard Topcount” instrument.
The tests are performed in triplicate. The results are expressed as a percentage of inhibition.

IC50 [1] | IC50 [2] | Structure (SMILES)
6 nM |  | CSCC[C@H](NC(=O)c1cc2c(N(Cc3cncn3Cc3ccc(C#N)cc3)S(=O)(=O)c3ccccc3)cccc2s1)C(=O)O [Example 30, (2S)-2-[(4-{benzenesulfonyl-[3-(4-cyanobenzyl)-3H-imidazol-4-ylmethyl]amino}benzo[b]thiophene-2-carbonyl)amino]-4-(methylsulfanyl)butyric acid]
10 nM | 60 nM | N#Cc1ccc(Cn2cncc2CN(C(=O)c2ccccc2)c2ccc3[nH]c(C(=O)N4CCSCC4)c(-c4ccccc4)c3c2)cc1 [Example 165, N-[3-(4-Cyanobenzyl)-3H-imidazol-4-ylmethyl]-N-[3-phenyl-2-(thiomorpholine-4-carbonyl)-1H-indol-5-yl]benzamide]
4 nM | 10 nM | CC(C)C[C@H](NC(=O)c1cc2c(NCc3cncn3Cc3ccc(C#N)cc3)cccc2s1)C(=O)O [Example 28, (2S)-2-[(4-{[3-(4-cyanobenzyl)-3H-imidazol-4-ylmethyl]amino}benzo[b]thiophene-2-carbonyl)amino]-4-methylpentanoic acid]
3 nM |  | CCCCNC(=O)c1cc2cc(N(Cc3cncn3Cc3ccc(C#N)cc3)S(=O)(=O)c3ccccc3)ccc2s1 [Example 57, N-Butyl-5-{benzenesulfonyl-[3-(4-cyanobenzyl)-3H-imidazol-4-ylmethyl]amino}benzo[b]thiophene-2-carboxamide]
8 nM | 20 nM | N#Cc1ccc(Cn2cncc2CN(C(=O)c2ccccc2)c2ccc3[nH]c(C(=O)N4CCCCC4)c(-c4ccccc4)c3c2)cc1 [Example 164, N-[3-(4-Cyanobenzyl)-3H-imidazol-4-ylmethyl]-N-[3-phenyl-2-(piperidine-1-carbonyl)-1H-indol-5-yl]benzamide]
2 nM |  | CCCC(=O)N(Cc1cncn1Cc1ccc(C#N)cc1)c1ccc2sc(C(=O)N3CCSCC3)cc2c1 [Example 92, N-[3-(4-Cyanobenzyl)-3H-imidazol-4-ylmethyl]-N-[2-(thiomorpholine-4-carbonyl)benzo[b]thiophen-5-yl]butyramide]
6 nM |  | N#Cc1ccc(Cn2cncc2CN(C(=O)Cc2ccccc2)c2ccc3sc(C(=O)N4CCSCC4)cc3c2)cc1 [Example 100, N-[3-(4-Cyanobenzyl)-3H-imidazol-4-ylmethyl]-N-[2-(thiomorpholine-4-carbonyl)benzo[b]thiophen-5-yl]-2-phenylacetamide]
8 nM |  | CCCCN(Cc1cncn1Cc1ccc(C#N)cc1)c1ccc2sc(C(=O)N3CCSCC3)cc2c1 [Example 113, 4-[5-({Butyl[2-(thiomorpholine-4-carbonyl)benzo[b]thiophen-5-yl]amino}methyl)imidazol-1-ylmethyl]benzonitrile]
5 nM |  | N#Cc1ccc(Cn2cncc2CN(C(=O)C2CCCCC2)c2ccc3sc(C(=O)N4CCSCC4)cc3c2)cc1 [Example 101, N-[3-(4-Cyanobenzyl)-3H-imidazol-4-ylmethyl]-N-[2-(thiomorpholine-4-carbonyl)benzo[b]thiophen-5-yl]cyclohexanecarboxamide]
6 nM | 70 nM | CC(C)C[C@H](NC(=O)c1cc2cc(N(Cc3cncn3Cc3ccc(C#N)cc3)S(=O)(=O)c3ccccc3)ccc2s1)C(=O)O [Example 33, (2S)-2-[(5-{benzenesulfonyl-[3-(4-cyanobenzyl)-3H-imidazol-4-ylmethyl]amino}benzo[b]thiophene-2-carbonyl)amino]-4-methylpentanoic acid]
3 nM |  | N#Cc1ccc(Cn2cncc2CN(c2ccc3sc(C(=O)NC4CCCC4)cc3c2)S(=O)(=O)c2ccccc2)cc1 [Example 55, N-Cyclopentyl-5-{benzenesulfonyl-[3-(4-cyanobenzyl)-3H-imidazol-4-ylmethyl]amino}benzo[b]thiophene-2-carboxamide]
1 nM |  | N#Cc1ccc(Cn2cncc2CN(c2ccc3sc(C(=O)NCc4cccs4)cc3c2)S(=O)(=O)c2ccccc2)cc1 [Example 46, N-(Thiophen-2-ylmethyl)-5-{benzenesulfonyl-[3-(4-cyanobenzyl)-3H-imidazol-4-ylmethyl]amino}benzo[b]thiophene-2-carboxamide]
2 nM |  | COC(=O)[C@H](CCSC)NC(=O)c1cc2cc(N(Cc3cncn3Cc3ccc(C#N)cc3)S(=O)(=O)c3ccccc3)ccc2s1 [Example 40]
1 nM |  | N#Cc1ccc(Cn2cncc2CN(C(=O)c2cccc(F)c2)c2ccc3sc(C(=O)N4CCSCC4)cc3c2)cc1 [Example 97, N-[3-(4-Cyanobenzyl)-3H-imidazol-4-ylmethyl]-N-[2-(thiomorpholine-4-carbonyl)benzo[b]thiophen-5-yl]-3-fluorobenzamide]
2 nM |  | N#Cc1ccc(Cn2cncc2CN(C(=O)c2cccs2)c2ccc3sc(C(=O)N4CCSCC4)cc3c2)cc1 [Example 91, N-[3-(4-Cyanobenzyl)-3H-imidazol-4-ylmethyl]-N-[2-(thiomorpholine-4-carbonyl)benzo[b]thiophen-5-yl]thiophene-2-carboxamide]
10 nM |  | CCOC(=O)c1cc2cc(NCc3cncn3Cc3ccc(C#N)cc3)ccc2s1 [Example 34, Ethyl 5-{[3-(4-cyanobenzyl)-3H-imidazol-4-ylmethyl]amino}benzo[b]thiophene-2-carboxylate]
400 nM | 7 nM | N#Cc1ccc(Cn2cncc2CN(C(=O)C2CCCCC2)c2ccc3[nH]c(C(=O)N4CCCCC4)c(-c4ccccc4)c3c2)cc1 [Example 167, Cyclohexanecarboxylic-[3-(4-cyanobenzyl)-3H-imidazol-4-ylmethyl]-[3-phenyl-2-(piperidine-1-carbonyl)-1H-indol-5-yl]amide acid]

Reference: US20040204417A1, “Novel benzothienyl or indole derivatives, preparation and use thereof as inhibitors of prenyl transferase proteins” (priority 2001, published 2004)
